Results published in US10952995B2, “Azaindoles as inhibitors of HPK1” (Genentech, Inc., priority 2017, dated 2021).
Where a name gives a salt, the structure may show the parent alone.

Molecular target: HPK1 (Homo sapiens (Human), UniProt Q92918)
Assay: HPK Lantha Binding Assay (TR-FRET, Tracer-222 / Eu-Anti-GST Ab)
Details: 2 nM HPK1, 2 nM Eu-Anti-GST Ab, 15 nM Tracer222, 60 min incubation; Morrison ki fit
Procedure: Methods for Biological evaluation to assess compound inhibition of HPK-1:
I. Compound Dilution: • 1. Prepare 12.5 uL/well of 5 mM of compounds (100×) to column 2 and column 13 & 10 ul/well DMSO in column 3-12, 14-23 and well A1-H1, I24-P24 of compound plate with Bravo. For reference compound, the top concentration is 1 mM • 2. Add 10 ul 2 mM staurosporine in well J1-P1 and A24-H24 • 3. Perform 11 point 5-fold compound serial dilution with Bravo • a. transfer 2.5 ul compounds from column 2 and column 13 to 10 ul of DMSO in column 3 and column 14 & so on • 4. Centrifuge the compound plate at 2500 rpm for 1 min • 5. Transfer 80 nl compounds into assay plate using Echo. One compound plate makes two assay plates • 6. Seal the assay plate and store in N2 cabinet.
2 nM HPK1, 2 nM Eu-Anti-GST Ab, 15 nM Tracer222, 60 min incubation
III. HPK Lantha Binding Assay: • 1. Add 4 ul 2×HPK1 and Eu-anti-GST antibody into each well of assay plate using Multidrop • 2. Incubate at 23 C incubator for 1 h • 3. Add 4 ul 2× Tracer-222 into each well of assay plate using Multidrop • 4. Incubate at 23 C incubator for 1 h • 5. Read the assay plate in Envision • a. TR_FRET, 340 ex/615 and 665 em • b. 100 usec Delay, 200 usec integration
IV. Analysis: • 1. Compound Ki was analyzed using Morrison ki fit model in XL-fit • a. fit=(1−((((E+x)+(Ki*(1[…](S/Kd))))−(((((E+x)+(Ki*(1+(S/Kd))))^2)−((4*E)*x))^0.5))/(2*E))) • res=(y-fit) • b. Parameters: • E=enzyme concentration • S=Tracer222 concentration, Kd=Tracer222 Kd • All in the same units (uM)

Sequence of HPK1 (Q92918 1-346): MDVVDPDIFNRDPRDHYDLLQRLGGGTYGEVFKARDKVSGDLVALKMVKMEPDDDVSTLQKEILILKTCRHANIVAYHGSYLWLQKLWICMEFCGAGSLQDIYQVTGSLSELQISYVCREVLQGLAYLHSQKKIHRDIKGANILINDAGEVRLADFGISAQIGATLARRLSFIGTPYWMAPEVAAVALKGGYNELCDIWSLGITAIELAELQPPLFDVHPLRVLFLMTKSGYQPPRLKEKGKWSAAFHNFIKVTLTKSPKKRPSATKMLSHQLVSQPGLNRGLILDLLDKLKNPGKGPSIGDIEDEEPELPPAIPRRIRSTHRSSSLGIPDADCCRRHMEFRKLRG

| Ki | SMILES |
| --- | --- |
| 2 nM | CCc1c(Cl)[nH]c2ncc(-c3cccc(N4CCOCC4=O)c3)cc12 [Compound 1-1, 4-(3-(2-chloro-3-ethyl-1H-pyrrolo[2,3]pyridin-5-yl)phenyl)morpholin-3-one] |
| 3 nM | CCc1c(Cl)[nH]c2ncc(-c3ccc(N)c(C(=O)N(C)C)n3)cc12 [Compound 1-2, 3-amino-6-(2-chloro-3-ethyl-1H-pyrrolo[2,3-b]pyridin-5-yl)-N,N-dimethylpicolinamide] |
| 15 nM | CCc1c(C)[nH]c2ncc(-c3ccc(N)c(C(=O)N(C)C)c3)cc12 [Compound 1-4, 2-amino-5-(3-ethyl-2-methyl-1H-pyrrolo[2,3-b]pyridin-5-yl)-N,N-dimethylbenzamide] |
| 2 nM | CCc1c(Cl)[nH]c2ncc(-c3cccc(N4CCOCC4=O)n3)cc12 [Compound 1-5, 4-(6-(2-chloro-3-ethyl-1H-pyrrolo[2,3-b]pyridin-5-yl)pyridin-2-yl)morpholin-3-one] |
| 15 nM | CCc1c(Cl)[nH]c2ncc(-c3ccc(N)c(C(=O)N4CC(O)C4)n3)cc12 [Compound 1-6, (3-amino-6-(2-chloro-3-ethyl-1H-pyrrolo[2,3-b]pyridin-5-yl)pyridin-2-yl)(3-hydroxyazetidin-1-yl)methanone formate] |
| 33 nM | CCc1c(Cl)[nH]c2ncc(-c3ccnc(N4CCOC4=O)n3)cc12 [Compound 1-7, 3-(4-(2-chloro-3-ethyl-1H-pyrrolo[2,3-b]pyridin-5-yl)pyrimidin-2-yl)oxazolidin-2-one formate] |
| 68 nM | Cc1[nH]c2ncc(-c3cccc(N4CCOCC4=O)n3)cc2c1C(F)(F)F [Compound 1-8, 4-(6-(2-methyl-3-(trifluoromethyl)-1H-pyrrolo[2,3-b]pyridin-5-yl)pyridin-2-yl)morpholin-3-one] |
| 76 nM | Cc1[nH]c2ncc(-c3ccc(N)c(C(=O)N(C)C)n3)cc2c1C(F)(F)F [Compound 1-9, 3-amino-N,N-dimethyl-6-(2-methyl-3-(trifluoromethyl)-1H-pyrrolo[2,3-b]pyridin-5-yl)picolinamide] |
| 32 nM | Cc1[nH]c2ncc(-c3ccc(N)c(C(=O)N(C)C)c3)cc2c1C(F)(F)F [Compound 1-10, 2-amino-N,N-dimethyl-5-(2-methyl-3-(trifluoromethyl)-1H-pyrrolo[2,3-b]pyridin-5-yl)benzamide] |
| 13 nM | Cc1[nH]c2ncc(-c3ccc(N)c(N4CCOCC4=O)n3)cc2c1C(F)(F)F [Compound 1-11, 4-(3-amino-6-(2-methyl-3-(trifluoromethyl)-1H-pyrrolo[2,3-b]pyridin-5-yl)pyridin-2-yl)morpholin-3-one] |
| 24 nM | Cc1[nH]c2ncc(-c3cc(N)cc(-c4ncccc4CO)c3)cc2c1C(F)(F)F [Compound 1-12, (2-(3-amino-5-(2-methyl-3-(trifluoromethyl)-1H-pyrrolo[2,3-b]pyridin-5-yl)phenyl)pyridin-3-yl)methanol] |
| 1700 nM | O=C1COCCN1c1cccc(-c2cnc3[nH]c(CO)c(C(F)(F)F)c3c2)c1 [Compound 1-13, 4-(3-(2-(hydroxymethyl)-3-(trifluoromethyl)-1H-pyrrolo[2,3-b]pyridin-5-yl)phenyl)morpholin-3-one] |
| 17 nM | O=C1COCCN1c1cccc(-c2cnc3[nH]c(Cl)c(CCF)c3c2)c1 [Compound 1-14, 4-(3-(2-chloro-3-(2-fluoroethyl)-1H-pyrrolo[2,3-b]pyridin-5-yl)phenyl) morpholin-3-one] |
| 75 nM | Cc1[nH]c2ncc(-c3cccc(N4CCOCC4CO)n3)cc2c1C(F)(F)F (stereo not drawn) [Compound 1-15, (4-(6-(2-methyl-3-(trifluoromethyl)-1H-pyrrolo[2,3-b]pyridin-5-yl)pyridin-2-yl)morpholin-3-yl)methanol] |
| 82 nM | Cc1[nH]c2ncc(-c3cccc(N4CCCNC4=O)n3)cc2c1C(F)(F)F [Compound 1-16, 1-(6-(2-methyl-3-(trifluoromethyl)-1H-pyrrolo[2,3-b]pyridin-5-yl)pyridin-2-yl)tetrahydropyrimidin-2(1H)-one] |
| 1300 nM | Cc1cc2cc(-c3ccc(N)c(C(=O)N(C)C)c3)cnc2[nH]1 [Compound 1-17, 2-amino-N,N-dimethyl-5-(2-methyl-1H-pyrrolo[2,3-b]pyridin-5-yl)benzamide] |
| 4 nM | CCc1c(F)[nH]c2ncc(-c3cccc(N4CCOCC4=O)c3)cc12 [Compound 1-18, 4-[3-(3-Ethyl-2-fluoro-1H-pyrrolo[2,3-b]pyridin-5-yl)phenyl]morpholin-3-one] |
| 1 nM | CCc1c(F)[nH]c2ncc(-c3ccc(N)c(C(=O)N(C)C)c3F)cc12 [Compound 1-19, 6-Amino-3-(3-ethyl-2-fluoro-1H-pyrrolo[2,3-b]pyridin-5-yl)-2-fluoro-N,N-dimethylbenzamide] |
| 17 nM | CN(C)C(=O)c1c(N)ccc(-c2cnc3[nH]c(Cl)c(CCO)c3c2)c1F [Compound 1-20, 6-Amino-3-[2-chloro-3-(2-hydroxyethyl)-1H-pyrrolo[2,3-b]pyridin-5-yl]-2-fluoro-N,N-dimethylbenzamide] |
| 89 nM | O=C1COCCN1c1cccc(-c2cnc3[nH]c(Cl)c(CCO)c3c2)c1 [Compound 1-21, 4-{3-[2-Chloro-3-(2-hydroxyethyl)-1H-pyrrolo[2,3-b]pyridin-5-yl]phenyl}morpholin-3-one] |
| 9.4 nM | CN(C)C(=O)c1cc(-c2cnc3[nH]c(Cl)c(CCO)c3c2Cl)ccc1N [Compound 1-22, 2-amino-5-(2,4-dichloro-3-(2-hydroxyethyl)-1H-pyrrolo[2,3-b]pyridin-5-yl)-N,N-dimethylbenzamide] |
| 160 nM | COCc1c(Cl)[nH]c2ncc(-c3ccc(N)c(C(=O)N(C)C)c3F)cc12 [Compound 1-23, 6-amino-3-(2-chloro-3-(methoxymethyl)-1H-pyrrolo[2,3-b]pyridin-5-yl)-2-fluoro-N,N-dimethylbenzamide] |
| 32 nM | CCc1c(Cl)[nH]c2ncc(-c3ccc(C4NCCNC4=O)cc3)cc12 (stereo not drawn) [Compound 1-24, 3-(4-(2-chloro-3-ethyl-1H-pyrrolo[2,3-b]pyridin-5-yl)phenyl)piperazin-2-one] |
| 31 nM | CCc1c(Cl)[nH]c2ncc(-c3cccc(C4NCCNC4=O)c3)cc12 (stereo not drawn) [Compound 1-25, 3-(3-(2-chloro-3-ethyl-1H-pyrrolo[2,3-b]pyridin-5-yl)phenyl)piperazin-2-one] |
| 12 nM | CN(C)C(=O)c1c(N)ccc(-c2cnc3[nH]c(Cl)c(CCO)c3c2Cl)c1F [Compound 1-26, 6-amino-3-(2,4-dichloro-3-(2-hydroxyethyl)-1H-pyrrolo[2,3-b]pyridin-5-yl)-2-fluoro-N,N-dimethylbenzamide] |
| 2.7 nM | CCc1c(Cl)[nH]c2ncc(-c3ccc(N)c(C(=O)N(C)C)c3F)cc12 [Compound 1-27, 6-amino-3-(2-chloro-3-ethyl-1H-pyrrolo[2,3-b]pyridin-5-yl)-2-fluoro-N,N-dimethylbenzamide] |

| SMILES | Ki |
| --- | --- |
| CCc1c(Cl)[nH]c2ncc(-c3ccc(N)c(C(=O)N(C)C)c3)cc12 [Compound 1-3, 2-amino-5-(2-chloro-3-ethyl-1H-pyrrolo[2,3-b]pyridin-5-yl)-N,N-dimethylbenzamide] | 0.9 nM |
